Structures can show the parent of a compound that is named as a salt.
molecular target: T1, recombinant human PARP (PARP1) (Homo sapiens, UniProt P09874); experiment: PARP enzyme assay, Method A (radioactivity or 'ELISA' enzyme assay with partially purified enzyme); format: biochemical; conditions: recombinant human PARP preparation, radioactive or ELISA enzyme assay
T1 construct: Full length human PARP (PARP1) is assembled from PCR fragments; His6 tag with TEV site, from the pFastBac-HTb vector (own knowledge of the vector); made in house; host or cells: insect cells, baculovirus (Bac-to-Bac, Gibco-BRL)
In short: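 Partially purified recombinant full-length His-tagged human PARP1, baculovirus-expressed. Radioactive format: 100 μg/mL sonicated DNA, 100 μg/mL histones, 100 mM Tris pH 8.0, 10 mM MgCl2, 200 μM labeled NAD, 10 min 37 °C or 60 min RT, TCA-precipitated counts. ELISA format: 250 μM NAD plus biotin-NAD on histone plates, TMB A450.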

T1 sequence (P09874 whole entry, the tested form may be a part): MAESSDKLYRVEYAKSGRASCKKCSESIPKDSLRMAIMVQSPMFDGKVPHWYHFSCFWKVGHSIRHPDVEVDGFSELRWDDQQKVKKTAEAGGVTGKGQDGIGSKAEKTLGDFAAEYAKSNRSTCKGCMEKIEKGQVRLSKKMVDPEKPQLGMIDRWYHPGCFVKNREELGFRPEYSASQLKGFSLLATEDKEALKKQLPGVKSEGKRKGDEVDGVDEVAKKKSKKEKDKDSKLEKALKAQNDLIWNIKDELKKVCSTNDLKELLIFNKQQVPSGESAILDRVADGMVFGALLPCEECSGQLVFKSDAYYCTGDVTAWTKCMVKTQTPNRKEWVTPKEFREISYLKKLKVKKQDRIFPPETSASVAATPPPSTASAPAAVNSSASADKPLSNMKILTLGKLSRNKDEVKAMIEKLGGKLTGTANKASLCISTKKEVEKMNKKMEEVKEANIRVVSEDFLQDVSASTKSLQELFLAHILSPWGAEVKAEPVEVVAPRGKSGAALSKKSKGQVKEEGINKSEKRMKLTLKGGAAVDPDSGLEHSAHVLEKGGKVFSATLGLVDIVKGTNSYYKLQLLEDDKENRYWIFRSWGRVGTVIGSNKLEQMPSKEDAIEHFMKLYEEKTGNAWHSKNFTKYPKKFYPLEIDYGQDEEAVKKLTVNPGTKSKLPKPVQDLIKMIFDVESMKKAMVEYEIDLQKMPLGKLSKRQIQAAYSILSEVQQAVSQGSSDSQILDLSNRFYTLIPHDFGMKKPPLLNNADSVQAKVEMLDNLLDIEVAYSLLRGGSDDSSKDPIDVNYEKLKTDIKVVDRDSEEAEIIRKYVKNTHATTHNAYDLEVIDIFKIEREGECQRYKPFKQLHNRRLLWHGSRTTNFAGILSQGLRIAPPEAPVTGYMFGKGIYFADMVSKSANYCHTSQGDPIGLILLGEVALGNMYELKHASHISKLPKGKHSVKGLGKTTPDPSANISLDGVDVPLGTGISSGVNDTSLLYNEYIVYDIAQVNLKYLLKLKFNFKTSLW

Structure (SMILES)	IC50 [µM]
CCc1cc(-c2ccc(S(=O)(=O)N3CCN(CCc4ccccn4)CC3)s2)c(C)[nH]c1=O [Example 60, 3-Ethyl-6-methyl-5-{5-[4-(2-pyridin-2-yl)ethylpiperazine-1-sulfonyl]thiophen-2-yl}-1H-pyridin-2-one dihydrochloride]	1.7
CCc1cc(-c2ccc(S(=O)(=O)NCCN3CCCC3)o2)c(C)[nH]c1=O [Example 53, 5-(5-Ethyl-2-methyl-6-oxo-1,6-dihydropyridin-3-yl)furan-2-sulfonic acid (2-pyrrolidin-1-yl)ethylamide hydrochloride]	0.16
CCc1cc(-c2ccc(CNCCN3CCCC3)s2)c(C)[nH]c1=O [Example 154, 3-Ethyl-6-methyl-5-{5-{[(2-pyrrolidin-1-ylethylamino)-methyl]thiophen-2-yl)-1H-pyridin-2-one dihydrochloride]	0.53
CCc1cc(-c2ccc(S(=O)(=O)NCCN3CCCCC3)o2)c(C)[nH]c1=O [Example 50, 5-(5-Ethyl-2-methyl-6-oxo-1,6-dihydropyridin-3-yl)furan-2-sulfonic acid (2-piperidin-1-yl)ethylamide hydrochloride]	0.27
CCc1cc(-c2ncnn2C)c(C)[nH]c1=O [Example 17, 3-Ethyl-6-methyl-5-(2-methyl-2H-1,2,4-triazol-3-yl)-1H-pyridin-2-one]	1.7
CCc1cc(-c2ccc(S(=O)(=O)NCCCCc3cccnc3)s2)c(C)[nH]c1=O [Example 84, 5-[5-Ethyl-2-methyl-6-oxo-1,6-dihydropyridin-3-yl]thiophene-2-sulfonic acid 4-(pyridin-3-ylbutyl)]amide hydrochloride]	1.6
CCc1cc(-c2ccc(CNCc3cccc(OC)c3)s2)c(C)[nH]c1=O [Example 167, 5-{5-[(3-Methoxybenzylamino)methyl]thiophen-2-y}]-3-ethyl-6-methyl-1H-pyridin-2-one hydrochloride]	0.55
CCc1cc(-c2nc[nH]n2)c(C)[nH]c1=O [Example 16, 3-Ethyl-6-methyl-5-(2H-1,2,4-triazol-3-yl)-1H-pyridin-2-one]	0.35
CCc1cc(-c2ccc(CNCC3CCN(Cc4cc(F)cc(F)c4)CC3)s2)c(C)[nH]c1=O [Example 140, 5-(5-{[1-(3,5-Difluoro-benzyl)-)-piperidin-4-ylmethyl]-amino}methyl-thiophen-2-yl)-3-ethyl-6-methyl-1H-pyridin-2-one hydrochloride]	0.64
CCc1cc(-c2ccc(S(=O)(=O)N(C)C3CCN(C)CC3)s2)c(C)[nH]c1=O [Example 77, 5-[5-Ethyl-2-methyl-6-oxo-1,6-dihydropyridin-3-yl]thiophene-2-sulfonic acid methyl-(1-methylpiperidin-4-yl]amide hydrochloride]	0.28
CCc1cc(-c2ccc(S(=O)(=O)NCCCN3CCC(O)C3)s2)c(C)[nH]c1=O (centres unmarked) [Example 30, 5-(5-Ethyl-2-methyl-6-oxo-1,6-dihydro-pyridin-3-yl)-thiophene-2-sulfonic acid [3-(3-hydroxy-pyrrolidin-1-yl)-propyl]-amide hydrochloride]	10
CCc1cc(-c2ccc(S(=O)(=O)N3CCN(Cc4ccncc4)CC3)s2)c(C)[nH]c1=O [Example 58, 3-Ethyl-6-methyl-5-[5-(4-pyridin-4-yl)methylpiperizine-1-sulfonyl]thiophen-2-yl}1H-pyridin-2-one dihydrochloride]	2.3
CCc1cc(-c2ccc(S(=O)(=O)N3CCN(CCCN4CCCC4)CC3)s2)c(C)[nH]c1=O [Example 62, 3-Ethyl-6-methyl-5-{5-[4-(3-pyrrolidin-1-yl)propylpiperazine-1-sulfonyl]thiophen-2-yl}-1H-pyridin-2-one dihydrochloride]	0.6
CCc1cc(-c2ccc(S(=O)(=O)NCC(c3cccnc3)N3CCOCC3)s2)c(C)[nH]c1=O (centres unmarked) [Example 72, 5-[5-Ethyl-2-methyl-6-oxo-1,6-dihydropyridin-3-yl]thiophene-2-sulfonic acid 2-(morpholin-4-yl)-2-(pyridin-3-yl)ethylamide dihydrochloride]	1.2
CCc1cc(-c2ccc(S(=O)(=O)NCc3cncc(C)n3)s2)c(C)[nH]c1=O [Example 73, 5-[5-Ethyl-2-methyl-6-oxo-1,6-dihydropyridin-3-yl]thiophene-2-sulfonic acid (6-methylpyrazin-2-yl)methylamide hydrochloride]	0.42
CCc1cc(-c2ccc(S(=O)(=O)NCCCN3CCCC3=O)s2)c(C)[nH]c1=O [Example 68, 5-[5-Ethyl-2-methyl-6-oxo-1,6-dihydropyridin-3-yl]thiophene-2-sulfonic acid [3-(2-oxopyrrolidin-1-yl)propyl]amide]	1.9
CCc1cc(-c2ccc(CNCc3ccccc3)s2)c(C)[nH]c1=O [Example 157, 5-[5-(Benzylamino-methyl)-thiophen-2-yl]-3-ethyl-6-methyl-1H-pyridin-2-one hydrochloride]	0.6
CCc1cc(-c2ccc(CN3CCC(OC)C3)s2)c(C)[nH]c1=O (centres unmarked) [Example 174, 3-Ethyl-5-{5-[(3-methoxypyrrolidin-1-ylmethyl)(thiophen-2-yl)-6-methyl-1H-pyridin-2-one hydrochloride]	1.3
CCc1cc(-c2ccc(CN3CCCC3)s2)c(C)[nH]c1=O [Example 171, 3-Ethyl-6-methyl-5-(5-pyrrolidin-1-ylmethylthiophen-2-yl)-1H-pyridin-2-one hydrochloride]	0.48
CCc1cc(-c2ccc(S(=O)(=O)NCCN3CCOCC3)o2)c(C)[nH]c1=O [Example 47, 5-(5-Ethyl-2-methyl-6-oxo-1,6-dihydropyridin-3-yl)furan-2-sulfonic acid (2-morpholin-4-yl)ethylamide hydrochloride]	0.89
CCc1cc(-c2ccc(CN)s2)c(C)[nH]c1=O [Example 175, 5-(5-Aminomethylthiophen-2-yl)-3-ethyl-6-methyl-1H-pyridin-2-one hydrochloride]	0.15
CCc1cc(-c2ccc(CNCc3cccc(C)c3)s2)c(C)[nH]c1=O [Example 165, 5-{5-[(3-Methylbenzylamino)methyl]thiophen-2-y}]-3-ethyl-6-methyl-1H-pyridin-2-one hydrochloride]	0.98
CCc1cc(-c2ccc(CNCc3cccnc3)s2)c(C)[nH]c1=O [Example 162, 3-Ethyl-6-methyl-5-{5-{[(pyridin-3-ylmethyl)amino]methyl}thiophen-2-yl)-1H-pyridin-2-one dihydrochloride]	0.52
CCc1cc(-c2ccc(S(=O)(=O)NCC3CCN(C(=O)OC(C)(C)C)CC3)s2)c(C)[nH]c1=O [Example 41-1, 5-(5-Ethyl-2-methyl-6-oxo-1,6-dihydropyridin-3-yl)thiophene-2-sulfonic acid (1-tert-butyloxycarbonylpiperidin-4-yl)methylamide]	1.5
CCc1cc(-c2ccc(S(=O)(=O)N3CCC(C(=O)c4ccccc4)CC3)s2)c(C)[nH]c1=O [Example 108, 5-[5-(4-Benzoylpiperidine-1-sulfonyl)thiophen-2-yl]-3-ethyl-6-methyl-1H-pyridin-2-one]	1
CCc1cc(-c2ccc(CNCc3ccc(Cl)cc3)s2)c(C)[nH]c1=O [Example 168, 5-{5-[(4-chlorobenzylamino)methyl]thiophen-2-y}]-3-ethyl-6-methyl-1H-pyridin-2-one hydrochloride]	0.4
